Test results from US6906175B2, “Production of adenine nucleotide translocator (ANT), novel ANT ligands and screening assays therefor” (priority 1998, dated 2005).
Entries after “also recorded” stand apart in the source; their conditions may differ.

Tests used:
Sf9/huANT3 mitochondria = target: T1, Sf9/huANT3 mitochondria (Homo sapiens, UniProt P12236); assay: [125I]atractyloside competition binding to Sf9/huANT3 mitochondria; details: 0.5 nM [125I]atractyloside
T1 construct: expressed in transfected cells; host or cells: Spodoptera frugiperda Sf9 cells infected with recombinant baculovirus; isolated mitochondria
T1 sequence (P12236 1-298): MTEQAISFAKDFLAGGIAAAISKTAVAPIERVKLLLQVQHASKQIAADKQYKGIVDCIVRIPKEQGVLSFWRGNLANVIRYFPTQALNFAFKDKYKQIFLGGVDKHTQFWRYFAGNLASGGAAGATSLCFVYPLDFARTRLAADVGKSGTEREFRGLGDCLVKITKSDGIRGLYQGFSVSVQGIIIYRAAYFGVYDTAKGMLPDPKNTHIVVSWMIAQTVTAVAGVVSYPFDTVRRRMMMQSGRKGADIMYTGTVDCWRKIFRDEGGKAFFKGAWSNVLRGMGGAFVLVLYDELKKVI
Description: Sf9 cells expressing huANT3 were grown in spinner flasks. The cells were harvested by centrifugation at 2,000 g for 5 min. The cell pellet was resuspended in MSB and subjected to 3 freeze-thaw cycles. Cell membranes and debris were removed by centrifugation at 600 g for 5 min; mitochondria were collected by centrifuging the supernatant at 20,000 g for 15 min. The mitochondrial pellets were suspended in MSB, and used for binding assays as described above. Homologous competition of [^32P]ATP binding was performed using 25 μg mitochondrial protein per assay.
These findings are consistent with the presence of functional huANT3 in the mitochondrial preparations.
Atractyloside analogs (Example 6; Table 1; see also Examples 7-9) were used in pseudo-homologous competition binding assays using Sf9/huANT3 mitochondria. Mitochondria (see Example 12, 25 μg/tube) were incubated with 0.5 nM [^125I]atractyloside and varying concentrations of non-radiolabeled atractyloside or fluorescent atractyloside derivatives as described above (FIGS. 7-9).

[1] = target: T2, T. ni/huANT3 mitochondria (Homo sapiens, UniProt P12236); assay: 125I-compound 24 competition binding (Tube Assay), mitochondria from T. ni cells expressing huANT3
T2 construct: expressed in transfected cells; host or cells: Trichoplusia ni cells infected with recombinant baculovirus (cells prepared by PharMingen); isolated mitochondria
T2 sequence (P12236 1-298): T1 sequence (P12236 1-298)
Description: Atractyloside analogs (Example 6; Table 1; see also Examples 7-9) were also used in pseudo-homologous competition binding assays using T. ni/huANT3 mitochondria or bovine mitochondria. Mitochondria from noninfected T. ni cells, or T. ni cells infected with a baculovirus expressing huANT3 (see Example 3) were prepared as follows: […] cells were prepared by a subcontractor (PharMingen, San Diego, Calif.) as portions of about 250 mg of cells per tube. Each portion was suspended in 1 ml of MSB with protease inhibitors (leupeptin, final concentration 10 ug/ml; pepstatin, final concentration 10 ug/ml; aprotinin, final concentration, 2 ug/ml; phenylmethylsulfonyl fluoride, [PMSF], final concentration, 100 μM; all from Sigma Chemical Co., St. Louis, Mo.). The resuspended cell suspensions were frozen and thawed twice, then homogenized using a rotating teflon-coated probe and a close-fitting glass container (10 passes). The cellular homogenate was centrifuged (3,700 rpm, approximately 1,500×g) at 4° C. for 5 minutes; this supernatant from the first spin was saved. The pellet was washed with about 500 μl of MSB with protease inhibitors, centrifuged (3,800 rpm, approximately 1,600×g) at 4° C. for 5 minutes, and supernatant from this spin was combined with the supernatant from the first spin. […]
(§1) The mitochondrial preparations were divided into aliquots (typically, 50μl for T. ni mitochondria or 20 μl for bovine mitochondria) and then either used directly in assays or flash frozen and stored at −80° C. The total protein content in the mitochondrial preparations was determined using the enhanced protocol (30 minutes at 60° C.; see http://www.ruf.rice.edu/˜bioslabs/methods/protein/BCA.html) of the bicinchoninic acid (BCA) assay (available in kit form from Pierce, Rockford, Ill.). […]
(§2) Unbound ^125I-compound 24 was removed by aspiration. […] The resultant pellets were aspirated and the radioactivity (dpm) in each was determined by gamma counting.

[2] = 125I-compound 24 competition binding (Tube Assay), mitochondria from control non-infected T. ni cells; details: control (nontransformed) T. ni mitochondria, 1 μg protein/tube; FIG. 15
Description: Atractyloside analogs (Example 6; Table 1; see also Examples 7-9) were also used in pseudo-homologous competition binding assays using T. ni/huANT3 mitochondria or bovine mitochondria. Mitochondria from noninfected T. ni cells, or T. ni cells infected with a baculovirus expressing huANT3 (see Example 3) were prepared as follows: […] cells were prepared by a subcontractor (PharMingen, San Diego, Calif.) as portions of about 250 mg of cells per tube. […]
as §1, §2

His-tagged huANT3 = target: T3, His-tagged huANT3 (Homo sapiens, UniProt P12236); assay: 125I-compound 24 competition binding to recombinant His-tagged huANT3 immobilized on Ni beads; parameters: made in house; host or cells: baculovirus-infected Trichoplusia ni cells; mitochondria solubilized and captured on Ni-agarose beads (Qiagen); details: His-tagged huANT3 on Ni-agarose beads, 1 hour at 4° C.; FIG. 19
T3 sequence (P12236 1-298): T1 sequence (P12236 1-298)
Description: Competitive binding assays were also performed using recombinant His-tagged huANT3 (see Example 3) immobilized on Ni beads (FIG. 19) instead of mitochondria. To prepare the bead-immobilized huANT3, mitochondria from T. ni cells infected with a baculovirus expressing huANT3 (see Example 3) were solubilized with 0.5% O-glucopyranoside in the presence of 0.5 nM ^125I-compound 24 Ni-agarose beads (Qiagen, Hilden, Germany), and various concentrations of ATR or BKA as unlabeled competitors. After 1 hour at 4° C., the beads were washed and radioactivity that remained associated with the beads was counted.

## C=C1[C@@H]2CCC3[C@@](CC[C@@H]4[C@H](C(=O)O)C[C@@H](O[C@@H]5O[C@H](CO)[C@@H](OS(=O)(=O)[O-])[C@H](OS(=O)(=O)[O-])[C@H]5OC(=O)CC(C)C)C[C@@]34C)(C2)[C@@H]1O.[K+].[K+] (some centres unmarked) [ATR, atractyloside]
Sf9/huANT3 mitochondria; [ATR Derivative] 1.0 nM
  cpm [125I]Atractyloside bound in the presence of ATR derivative: 224 cpm
Sf9/huANT3 mitochondria; [ATR Derivative] 5.0 nM
  cpm [125I]Atractyloside bound in the presence of ATR derivative: 146 cpm
Sf9/huANT3 mitochondria; [ATR Derivative] 10 nM
  cpm [125I]Atractyloside bound in the presence of ATR derivative: 42 cpm
Sf9/huANT3 mitochondria; [ATR Derivative] 50 nM
  cpm [125I]Atractyloside bound in the presence of ATR derivative: 26 cpm
Sf9/huANT3 mitochondria; [ATR Derivative] 1,000 nM
  cpm [125I]Atractyloside bound in the presence of ATR derivative: 36 cpm
Sf9/huANT3 mitochondria; [ATR Derivative] 5,000 nM
  cpm [125I]Atractyloside bound in the presence of ATR derivative: 45 cpm
Sf9/huANT3 mitochondria; [ATR Derivative] 10,000 nM
  cpm [125I]Atractyloside bound in the presence of ATR derivative: 0 cpm
[1]; mitochondria from T. ni cells expressing huANT3, 1 μg protein/tube, FIG. 14
  affinity relative to the low affinity ANT ligand ADP: about 1,000 fold
[1]; mitochondria from T. ni cells expressing huANT3, FIGS. 12, 14, 15
  competitive inhibition of 125I-compound 24 binding (in words): slightly higher affinity than compound 24; also recorded: increasingly inhibited by higher concentrations of ATR
[2]
  competitive inhibition of 125I-compound 24 binding (in words): only slight inhibition
His-tagged huANT3
  competitive inhibition of 125I-compound 24 binding (in words): effectively compete with compound 24
